Source: PubChem BioAssay AID256 (DTP/NCI, 2004)
Where “and” joins values, the source holds several entries; their conditions need not be identical. Equal entries are not always repeated. Inconclusive results and toxic doses are left out. How the source made its calls: active means survival T/C of 150% or more; inactive means T/C below 125% in these data. Residues, ends and D or L forms follow the SMILES beside them. *: point of attachment. Cbz = O=C(OCc1ccccc1)*; OBn = c1ccc(CO*)cc1

Test system: CD2F1 mice, L1210 leukemia ip, survival T/C
Test: NCI In Vivo Anticancer Drug Screen. Data for tumor model L1210 Leukemia (intraperitoneal) in CD2F1 (CDF1) mice
Conditions: higher = longer survival
Method in brief: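 Read-out first: treated-group measurement over vehicle-control measurement, expressed as a ratio. Animals bore a transplanted tumor line and were dosed with compound or vehicle.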

[1] = endpoint: mean survival time, dose: 100.0 mg/kg/injection, schedule: Q01DX009 (ip), vehicle: saline
[2] = endpoint: mean survival time, dose: 200.0 mg/kg/injection, schedule: Q01DX009 (ip), vehicle: saline
[3] = endpoint: mean survival time, dose: 400.0 mg/kg/injection, schedule: Q01DX009 (ip), vehicle: saline
[4] = endpoint: mean survival time, dose: 100.0 mg/kg/injection, schedule: Q01DX009 (ip), vehicle: saline with Tween-80
[5] = endpoint: mean survival time, dose: 200.0 mg/kg/injection, schedule: Q01DX009 (ip), vehicle: saline with Tween-80
[6] = endpoint: mean survival time, dose: 400.0 mg/kg/injection, schedule: Q01DX009 (ip), vehicle: saline with Tween-80
[7] = endpoint: mean survival time, dose: 100.0 mg/kg/injection, schedule: Q04DX003 (ip), vehicle: saline with Tween-80
[8] = endpoint: mean survival time, dose: 200.0 mg/kg/injection, schedule: Q04DX003 (ip), vehicle: saline with Tween-80
[9] = endpoint: mean survival time, dose: 400.0 mg/kg/injection, schedule: Q04DX003 (ip), vehicle: saline with Tween-80
[10] = endpoint: mean survival time, dose: 50.0 mg/kg/injection, schedule: Q01DX009 (ip), vehicle: saline with Tween-80
[11] = endpoint: mean survival time, dose: 25.0 mg/kg/injection, schedule: Q01DX009 (ip), vehicle: other
[12] = endpoint: mean survival time, dose: 6.25 mg/kg/injection, schedule: Q01DX009 (ip), vehicle: saline with Tween-80
[13] = endpoint: mean survival time, dose: 12.5 mg/kg/injection, schedule: Q01DX009 (ip), vehicle: saline with Tween-80
[14] = endpoint: mean survival time, dose: 25.0 mg/kg/injection, schedule: Q01DX009 (ip), vehicle: saline with Tween-80

Measured: T/C

COc1cc(/C=C/C(=O)O)ccc1OC(C)=O
inactive: [1] 98 % of control | [2] 100 % of control | [3] 93 % of control

Nc1nc(N)c2cc(CNc3ccc(C(=O)NC(C(=O)O)C(=O)O)cc3)ccc2n1
inactive: endpoint: mean survival time, dose: 0.8 mg/kg/injection, schedule: Q01DX009 (ip), vehicle: saline 102 % of control | endpoint: mean survival time, dose: 1.6 mg/kg/injection, schedule: Q01DX009 (ip), vehicle: saline 86 % of control

OC1(C2(O)CCCC2)CCCC1
inactive: [4] 105 % of control | [5] 111 % of control | [6] 103 % of control

O=C(CNC(=O)OCc1ccccc1)NCC(=O)OCc1ccccc1 (Cbz-Gly-Gly-OBn)
inactive: [4] 93 % of control | [7] 96 % of control | [5] 92 % of control | [8] 93 % of control | [6] 89 % of control | [9] 93 % of control

CP(=O)(c1ccccc1)c1ccccc1
inactive: endpoint: mean survival time, dose: 100.0 mg/kg/injection, schedule: Q01DX001 (ip), vehicle: saline with Tween-80 100 % of control | endpoint: mean survival time, dose: 200.0 mg/kg/injection, schedule: Q01DX001 (ip), vehicle: saline with Tween-80 103 % of control | endpoint: mean survival time, dose: 400.0 mg/kg/injection, schedule: Q01DX001 (ip), vehicle: saline with Tween-80 98 % of control

COc1ccc(C(=O)Nc2ccc(Br)cc2)cc1
inactive: [1] 93 % of control | [2] 108 % of control | [3] 98 % of control

COc1cc(OC)c(NC(=O)Nc2ccccc2C(N)=O)cc1Cl
inactive: [10] 111 % of control | [4] 96 % of control | [5] 100 % of control

Nc1ccc2ncccc2c1
inactive: [11] 93 % of control | endpoint: mean survival time, dose: 50.0 mg/kg/injection, schedule: Q01DX009 (ip), vehicle: other 95 % of control | endpoint: mean survival time, dose: 100.0 mg/kg/injection, schedule: Q01DX009 (ip), vehicle: other 91 % of control

Cc1cc(O)cc(=O)o1
inactive: endpoint: mean survival time, dose: 200.0 mg/kg/injection, schedule: Q01DX001 (ip), vehicle: other 93 % of control | endpoint: mean survival time, dose: 400.0 mg/kg/injection, schedule: Q01DX001 (ip), vehicle: other 105 % of control

Oc1ccc(Cl)cc1Sc1cc(Cl)ccc1O
inactive: endpoint: mean survival time, dose: 100.0 mg/kg/injection, schedule: Q04DX003 (ip), vehicle: other 108 % of control

CCSC1CCS(=O)(=O)C1 (stereo not drawn)
inactive: [10] 93 % of control | [4] 93 % of control | [5] 97 % of control

NC(=O)c1ccc[n+](CCc2c[nH]c3ccccc23)c1
inactive: endpoint: mean survival time, dose: 18.75 mg/kg/injection, schedule: Q01DX009 (ip), vehicle: saline with Tween-80 101 % of control | endpoint: mean survival time, dose: 37.5 mg/kg/injection, schedule: Q01DX009 (ip), vehicle: saline with Tween-80 92 % of control | endpoint: mean survival time, dose: 75.0 mg/kg/injection, schedule: Q01DX009 (ip), vehicle: saline with Tween-80 103 % of control | endpoint: mean survival time, dose: 75.0 mg/kg/injection, schedule: Q04DX003 (ip), vehicle: saline with Tween-80 88 % of control

CC(=O)CCCN(CCO)CCO
inactive: endpoint: mean survival time, dose: 100.0 mg/kg/injection, schedule: Q01DX001 (ip), vehicle: saline 103 % of control | endpoint: mean survival time, dose: 200.0 mg/kg/injection, schedule: Q01DX001 (ip), vehicle: saline 93 % of control | endpoint: mean survival time, dose: 400.0 mg/kg/injection, schedule: Q01DX001 (ip), vehicle: saline 101 % of control

CC1(Br)OC(=O)CC1Br (stereo not drawn)
inactive: endpoint: mean survival time, dose: 100.0 mg/kg/injection, schedule: Q04DX002 (ip), vehicle: saline with Tween-80 106 % of control | endpoint: mean survival time, dose: 200.0 mg/kg/injection, schedule: Q04DX002 (ip), vehicle: saline with Tween-80 91 % of control

O=P(Oc1ccccc1)(Oc1ccccc1)C(Nc1ccccc1)c1cccnc1 (stereo not drawn)
inactive: [10] 102 % of control | [4] 97 % of control | [5] 94 % of control

Cc1cccc(C)c1N=NN(C)C
inactive: [12] 107 % of control | endpoint: mean survival time, dose: 12.5 mg/kg/injection, schedule: Q01DX009 (ip), vehicle: other 90 % of control | [13] 104 % of control | [11] 100 % of control | [14] 118 % of control

COc1ccc([I+]c2ccccc2)cc1
inactive: endpoint: mean survival time, dose: 2.5 mg/kg/injection, schedule: Q01DX009 (ip), vehicle: saline sonified 102 % of control | endpoint: mean survival time, dose: 2.5 mg/kg/injection, schedule: Q04DX003 (ip), vehicle: saline with Tween-80 106 % of control | endpoint: mean survival time, dose: 5.0 mg/kg/injection, schedule: Q01DX009 (ip), vehicle: saline sonified 106 % of control | endpoint: mean survival time, dose: 5.0 mg/kg/injection, schedule: Q04DX003 (ip), vehicle: saline with Tween-80 98 % of control | [12] 95 % of control | endpoint: mean survival time, dose: 6.25 mg/kg/injection, schedule: Q04DX003 (ip), vehicle: saline with Tween-80 93 % of control | endpoint: mean survival time, dose: 10.0 mg/kg/injection, schedule: Q01DX009 (ip), vehicle: saline sonified 95 % of control | endpoint: mean survival time, dose: 10.0 mg/kg/injection, schedule: Q04DX003 (ip), vehicle: saline with Tween-80 104 % of control | [13] 118 % of control | endpoint: mean survival time, dose: 12.5 mg/kg/injection, schedule: Q04DX003 (ip), vehicle: saline with Tween-80 92 % of control | [14] 120 % of control | endpoint: mean survival time, dose: 25.0 mg/kg/injection, schedule: Q04DX003 (ip), vehicle: saline with Tween-80 104 % of control

CC(C)CC(Br)C(=O)NC(CC(C)C)C(=O)O (stereo not drawn)
inactive: [7] 95 % of control | [8] 105 % of control | [9] 94 % of control

O=[N+]([O-])c1cccc(C2=NNC(c3cccc([N+](=O)[O-])c3)=NN2)c1
inactive: endpoint: median survival time, dose: 50.0 mg/kg/injection, schedule: Q01DX001 (ip), vehicle: saline with Tween-80 88 % of control | endpoint: median survival time, dose: 100.0 mg/kg/injection, schedule: Q01DX001 (ip), vehicle: saline with Tween-80 92 % of control | endpoint: median survival time, dose: 200.0 mg/kg/injection, schedule: Q01DX001 (ip), vehicle: saline with Tween-80 94 % of control | endpoint: median survival time, dose: 400.0 mg/kg/injection, schedule: Q01DX001 (ip), vehicle: saline with Tween-80 95 % of control | endpoint: median survival time, dose: 800.0 mg/kg/injection, schedule: Q01DX001 (ip), vehicle: saline with Tween-80 98 % of control

c1ccc2c3c([nH]c2c1)CN1CCNCC1C3 (stereo not drawn)
inactive: [12] 98 % of control | [13] 100 % of control | [14] 100 % of control

O=c1[nH]ccc2sccc12
inactive: [4] 100 % of control | [7] 96 % of control | [5] 105 % of control | [9] 103 % of control

O=C(Nc1cc(Cl)ccc1C(=O)O)c1cccc(C[n+]2ccccc2)c1
inactive: endpoint: median survival time, dose: 50.0 mg/kg/injection, schedule: Q01DX005 (ip), vehicle: saline with Tween-80 105 % of control | endpoint: median survival time, dose: 100.0 mg/kg/injection, schedule: Q01DX005 (ip), vehicle: saline with Tween-80 98 % of control | endpoint: median survival time, dose: 200.0 mg/kg/injection, schedule: Q01DX005 (ip), vehicle: saline with Tween-80 95 % of control | endpoint: median survival time, dose: 400.0 mg/kg/injection, schedule: Q01DX005 (ip), vehicle: saline with Tween-80 91 % of control

CCOC(=O)C1C(=O)N(C)C(=O)N1C (stereo not drawn)
inactive: endpoint: mean survival time, dose: 5.56 mg/kg/injection, schedule: Q01DX009 (ip), vehicle: water 89 % of control | endpoint: mean survival time, dose: 8.33 mg/kg/injection, schedule: Q01DX009 (ip), vehicle: water 90 % of control | endpoint: mean survival time, dose: 12.5 mg/kg/injection, schedule: Q01DX009 (ip), vehicle: water 121 % of control and 92 % of control | endpoint: mean survival time, dose: 25.0 mg/kg/injection, schedule: Q01DX009 (ip), vehicle: water 95 % of control | endpoint: mean survival time, dose: 50.0 mg/kg/injection, schedule: Q01DX009 (ip), vehicle: water 93 % of control | endpoint: mean survival time, dose: 100.0 mg/kg/injection, schedule: Q01DX009 (ip), vehicle: water 95 % of control | endpoint: mean survival time, dose: 200.0 mg/kg/injection, schedule: Q01DX009 (ip), vehicle: water 98 % of control

CC(=O)Nc1c(C#N)ncn1C1OC(CO)C(O)C1O (stereo not drawn)
inactive: endpoint: median survival time, dose: 12.5 mg/kg/injection, schedule: Q01DX005 (ip), vehicle: saline 104 % of control | endpoint: median survival time, dose: 25.0 mg/kg/injection, schedule: Q01DX005 (ip), vehicle: saline 103 % of control | endpoint: median survival time, dose: 50.0 mg/kg/injection, schedule: Q01DX005 (ip), vehicle: saline 92 % of control | endpoint: median survival time, dose: 100.0 mg/kg/injection, schedule: Q01DX005 (ip), vehicle: saline 101 % of control | endpoint: median survival time, dose: 200.0 mg/kg/injection, schedule: Q01DX005 (ip), vehicle: saline 100 % of control

CCCC[P+](CO)(CCCC)CCCC
inactive: endpoint: mean survival time, dose: 7.5 mg/kg/injection, schedule: Q04DX003 (ip), vehicle: saline 103 % of control | endpoint: mean survival time, dose: 15.0 mg/kg/injection, schedule: Q04DX003 (ip), vehicle: saline 98 % of control | endpoint: mean survival time, dose: 30.0 mg/kg/injection, schedule: Q04DX003 (ip), vehicle: saline 101 % of control

[CH3][Sb]([CH3])([CH3])([O]C(=O)CBr)[O]C(=O)CBr
inactive: [13] 102 % of control | [14] 100 % of control | [10] 96 % of control
